Assay results reported in ChEMBL document CHEMBL6114945, “Cyclic vinyl sulfones activate NRF2 to protect from oxidative stress-induced programmed necrosis” (Bioorg Med Chem Lett, 2025).
The source made the active and inactive calls. The calls are words filed in the database; no cut-off is given here. Where a SMILES comes first, the peptide text is derived from it. The star is where a group is joined. Cbz = O=C(OCc1ccccc1)*

What was measured:
[1] = molecular target: T1, Keap1/Nrf2 (Homo sapiens) (UniProt Q16236+Q14145); test: Inhibition of KEAP1 BTB domain-NRF2 protein-protein interaction in human HeLa cells assessed as upregulation of HO-1 level at 10 uM measured after 8 to 24 hrs by Western blotting analysis; assay type: cell-based; details: time 8-24 hrs
T1 sequence (Q14145 whole entry, looked up, the tested form may be a part): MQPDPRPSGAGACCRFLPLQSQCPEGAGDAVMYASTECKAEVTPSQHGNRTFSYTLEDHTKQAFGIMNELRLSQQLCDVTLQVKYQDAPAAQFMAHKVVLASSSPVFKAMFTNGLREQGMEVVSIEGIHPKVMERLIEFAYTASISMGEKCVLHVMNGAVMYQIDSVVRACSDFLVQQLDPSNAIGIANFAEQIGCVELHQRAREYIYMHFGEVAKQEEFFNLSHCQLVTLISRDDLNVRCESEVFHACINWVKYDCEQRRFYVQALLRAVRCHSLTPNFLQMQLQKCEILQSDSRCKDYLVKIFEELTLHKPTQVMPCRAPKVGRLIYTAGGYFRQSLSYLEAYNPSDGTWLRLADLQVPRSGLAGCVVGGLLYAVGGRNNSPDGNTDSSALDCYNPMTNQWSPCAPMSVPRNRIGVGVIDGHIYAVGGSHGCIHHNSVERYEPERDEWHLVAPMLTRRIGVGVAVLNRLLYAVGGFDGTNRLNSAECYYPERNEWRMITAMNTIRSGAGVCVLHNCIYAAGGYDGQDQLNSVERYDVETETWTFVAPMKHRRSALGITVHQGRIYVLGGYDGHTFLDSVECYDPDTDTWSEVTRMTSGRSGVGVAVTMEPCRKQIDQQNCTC
T1 sequence (Q16236 whole entry, looked up, the tested form may be a part): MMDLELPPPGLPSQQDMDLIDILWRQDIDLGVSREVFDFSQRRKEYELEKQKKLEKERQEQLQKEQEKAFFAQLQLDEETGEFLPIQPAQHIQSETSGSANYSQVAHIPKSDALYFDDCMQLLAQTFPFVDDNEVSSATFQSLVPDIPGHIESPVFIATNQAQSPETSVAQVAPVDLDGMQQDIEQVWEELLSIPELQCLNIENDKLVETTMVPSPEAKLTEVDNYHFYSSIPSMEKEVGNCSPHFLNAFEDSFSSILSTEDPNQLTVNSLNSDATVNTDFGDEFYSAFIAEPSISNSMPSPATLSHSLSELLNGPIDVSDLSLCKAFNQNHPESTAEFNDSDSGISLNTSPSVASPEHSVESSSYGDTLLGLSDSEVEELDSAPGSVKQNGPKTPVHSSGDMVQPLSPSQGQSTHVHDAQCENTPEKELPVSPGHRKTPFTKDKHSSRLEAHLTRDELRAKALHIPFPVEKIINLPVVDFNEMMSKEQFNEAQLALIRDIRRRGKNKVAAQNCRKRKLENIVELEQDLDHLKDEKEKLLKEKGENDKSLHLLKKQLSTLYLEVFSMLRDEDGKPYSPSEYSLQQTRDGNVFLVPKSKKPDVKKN

[2] = molecular target: T1, Keap1/Nrf2 (Homo sapiens); test: Inhibition of KEAP1 BTB domain-NRF2 protein-protein interaction in human HeLa cells assessed as upregulation of p-62 mRNA expression at 20 to 40 uM measured after 8 hrs by RT-PCR analysis; assay type: cell-based; details: dose 20-40 µM
[3] = molecular target: T1, Keap1/Nrf2 (Homo sapiens); test: Inhibition of KEAP1 BTB domain-NRF2 protein-protein interaction in human HeLa cells assessed as upregulation of NQO1 mRNA expression at 40 uM measured after 4 to 8 hrs by RT-PCR analysis; assay type: cell-based; details: time 4-8 hrs
[4] = molecular target: T1, Keap1/Nrf2 (Homo sapiens); test: Inhibition of KEAP1 BTB domain-NRF2 protein-protein interaction in human NCI-H1299 cells assessed as upregulation of GCSc expression at 1.25 to 20 uM measured after 18 hrs by Western blot analysis; assay type: cell-based; details: dose 1.25-20 µM
[5] = molecular target: T1, Keap1/Nrf2 (Homo sapiens); test: Inhibition of KEAP1 BTB domain-NRF2 protein-protein interaction in human HeLa cells assessed as upregulation of NRF2 level at 10 uM measured after 8 to 24 hrs by Western blotting analysis; assay type: cell-based; details: time 8-24 hrs
[6] = test system: HeLa; test: Effect on KEAP1 mRNA expression level in human HeLa cells at 20 to 40 uM measured after 4 to 8 hrs by RT-PCR analysis; assay type: functional, cell-based; details: dose 20-40 µM, time 4-8 hrs
[7] = molecular target: Kelch-like ECH-associated protein 1 (Homo sapiens) (UniProt Q14145); test: Binding affinity to KEAP1 in human HeLa cells assessed as appearance of high molecular weight bands of modified KEAP1 at 10 uM measured after 4 to 24 hrs by Western blotting analysis; assay type: cell-based; details: time 4-24 hrs
Kelch-like ECH-associated protein 1 (Homo sapiens), sequence (Q14145 whole entry, the tested form may be a part): as the sequence (Q14145 whole entry, looked up, the tested form may be a part) above

[8] = molecular target: T1, Keap1/Nrf2 (Homo sapiens); test: Inhibition of KEAP1 BTB domain-NRF2 protein-protein interaction in human NCI-H1299 cells assessed as increase in nuclear localization of NRF2 at 20 uM measured after 18 hrs by immunostaining based microscopic analysis; assay type: cell-based
[9] = molecular target: T1, Keap1/Nrf2 (Homo sapiens); test: Inhibition of KEAP1 BTB domain-NRF2 protein-protein interaction in human HeLa cells assessed as upregulation of NRF2 mRNA expression at 20 to 40 uM measured after 4 hrs by RT-PCR analysis; assay type: cell-based; details: dose 20-40 µM
[10] = test system: HeLa; test: Protection against erastin-induced ferroptosis in human HeLa cells assessed as reduction in cell death; assay type: functional, cell-based
[11] = molecular target: Kelch-like ECH-associated protein 1 (Homo sapiens) (UniProt Q14145); test: Binding affinity to KEAP1 in human HCT-116 cells assessed as appearance of high molecular weight bands of modified KEAP1 at 2.5 to 40 uM measured after 18 hrs by Western blotting analysis; assay type: cell-based; details: dose 2.5-40 µM
[12] = test system: NCI-H1299; test: Protection against RSL3-induced ferroptosis in human NCI-H1299 cells at 5 to 10 uM preincubated for 6 hrs followed by RSL3 addition and measured after 18 hrs by crystal violet staining based assay; assay type: functional, cell-based; details: dose 5-10 µM, time 24.0 hrs
[13] = test system: NCI-H1299; test: Protection against RSL3-induced ferroptosis in human NCI-H1299 cells assessed as reduction in cell death at 5 to 10 uM preincubated for 6 hrs followed by RSL3 addition and measured after 18 hrs by morphological analysis; assay type: functional, cell-based; details: dose 5-10 µM, time 24.0 hrs
[14] = molecular target: T1, Keap1/Nrf2 (Homo sapiens); test: Inhibition of KEAP1 BTB domain-NRF2 protein-protein interaction in human NCI-H1299 cells assessed as upregulation of p-62 expression at 1.25 to 20 uM measured after 18 hrs by Western blot analysis; assay type: cell-based; details: dose 1.25-20 µM
[15] = molecular target: T1, Keap1/Nrf2 (Homo sapiens); test: Inhibition of KEAP1 BTB domain-NRF2 protein-protein interaction in human NCI-H1299 cells assessed as upregulation of SLC7A11 expression at 1.25 to 20 uM measured after 18 hrs by Western blot analysis; assay type: cell-based; details: dose 1.25-20 µM
[16] = molecular target: T1, Keap1/Nrf2 (Homo sapiens); test: Inhibition of KEAP1 BTB domain-NRF2 protein-protein interaction in human NCI-H1299 cells assessed as upregulation of HO-1 expression at 1.25 to 20 uM measured after 6 hrs by Western blot analysis; assay type: cell-based; details: dose 1.25-20 µM
[17] = test system: HCT-116; test: Cytotoxicity against human HCT-116 cells at 40 uM; assay type: toxicity, cell-based; details: hct-116, 40 µM
[18] = molecular target: T1, Keap1/Nrf2 (Homo sapiens); test: Inhibition of KEAP1 BTB domain-NRF2 protein-protein interaction in human HeLa cells assessed as upregulation of NRF2 mRNA expression at 20 to 40 uM measured after 8 hrs by RT-PCR analysis; assay type: cell-based; details: dose 20-40 µM
[19] = test system: HeLa; test: Cytotoxicity against human HeLa cells at 40 uM; assay type: toxicity, cell-based
[20] = molecular target: T1, Keap1/Nrf2 (Homo sapiens); test: Inhibition of KEAP1 BTB domain-NRF2 protein-protein interaction in human HeLa cells assessed as upregulation of HO-1 mRNA expression at 20 uM measured after 4 to 8 hrs by RT-PCR analysis; assay type: cell-based; details: time 4-8 hrs
[21] = test system: NCI-H1299; test: Protection against RSL3-induced ferroptosis in human NCI-H1299 cells at 10 uM preincubated for 6 hrs followed by RSL3 addition and measured after 18 hrs by phase contrast microscopy; assay type: functional, cell-based
[22] = molecular target: T1, Keap1/Nrf2 (Homo sapiens); test: Inhibition of KEAP1 BTB domain-NRF2 protein-protein interaction in human HeLa cells assessed as upregulation of NQO1 mRNA expression at 20 uM measured after 8 hrs by RT-PCR analysis; assay type: cell-based
[23] = molecular target: T1, Keap1/Nrf2 (Homo sapiens); test: Inhibition of KEAP1 BTB domain-NRF2 protein-protein interaction in human HeLa cells assessed as upregulation of HO-1 level at 40 uM measured after 18 hrs by Western blotting analysis; assay type: cell-based
[24] = molecular target: T1, Keap1/Nrf2 (Homo sapiens); test: Inhibition of KEAP1 BTB domain-NRF2 protein-protein interaction in human HCT-116 cells assessed as upregulation of NRF2 level at 2.5 to 40 uM measured after 18 hrs by Western blotting analysis; assay type: cell-based; details: dose 2.5-40 µM
[25] = molecular target: T1, Keap1/Nrf2 (Homo sapiens); test: Inhibition of KEAP1 BTB domain-NRF2 protein-protein interaction in human HeLa cells assessed as upregulation of NRF2 level at 5 to 40 uM measured after 18 hrs by Western blotting analysis; assay type: cell-based; details: dose 5-40 µM
[26] = molecular target: T1, Keap1/Nrf2 (Homo sapiens); test: Inhibition of KEAP1 BTB domain-NRF2 protein-protein interaction in human HeLa cells assessed as increase in NRF2 level at 50 nM measured after 6 hrs by Western blotting analysis; assay type: cell-based
[27] = molecular target: T1, Keap1/Nrf2 (Homo sapiens); test: Inhibition of KEAP1 BTB domain-NRF2 protein-protein interaction in human HCT-116 cells assessed as upregulation of NRF2 level at 2.5 to 20 uM measured after 18 hrs by Western blotting analysis; assay type: cell-based; details: dose 2.5-20 µM
[28] = molecular target: T1, Keap1/Nrf2 (Homo sapiens); test: Inhibition of KEAP1 BTB domain-NRF2 protein-protein interaction in human HeLa cells assessed as upregulation of NRF2 level at 2.5 uM measured after 18 hrs by Western blotting analysis; assay type: cell-based
[29] = molecular target: T1, Keap1/Nrf2 (Homo sapiens); test: Inhibition of KEAP1 BTB domain-NRF2 protein-protein interaction in human HeLa cells assessed as upregulation of HO-1 level at 5 uM measured after 18 hrs by Western blotting analysis; assay type: cell-based
[30] = test system: HCT-116; test: Cytotoxicity against human HCT-116 cells at >20 uM; assay type: toxicity, cell-based; details: hct-116, 20 µM
[31] = test system: A549; test: Inhibition of KEAP1 mutant-NRF2 protein-protein interaction in human A549 cells assessed as upregulation of HO-1 level at 2.5 to 20 uM measured after 18 hrs by Western blotting analysis; assay type: cell-based; details: dose 2.5-20 µM
[32] = test system: A549; test: Inhibition of KEAP1 mutant-NRF2 protein-protein interaction in human A549 cells assessed as upregulation of NRF2 level at 2.5 to 20 uM measured after 18 hrs by Western blotting analysis; assay type: cell-based; details: dose 2.5-20 µM
[33] = Inhibition of proteasome-mediated NRF2 degradation in human HeLa cells assessed as increase in NRF2 level at 10 uM measured after 6 hrs by Western blotting analysis; assay type: toxicity, cell-based
[34] = molecular target: T1, Keap1/Nrf2 (Homo sapiens); test: Inhibition of KEAP1-NRF2 protein-protein interaction in human HeLa cells assessed as increase in NRF2 level at 50 uM measured after 6 hrs by Western blotting analysis; assay type: cell-based

In the case of `CC1=C2C(CCS2(=O)=O)c2c(c(O)c3ccccc3c2O)C1` (centres undefined), the inhibition [1] is reported as “Active; Most Efficient Effect Was Observed After 8 Hrs”, the inhibition [2] is reported as “Active; Significant Upregulation Observed” and the inhibition [3] is reported as “Active; Highly Upregulated”. For the same compound, the inhibition [4] was “Active”, the inhibition [5] was “Active; Most Efficient Effect Was Observed After 8 Hrs” and the Activity [6] was “inactive”. For the same compound, the Activity [7] was “Active”, the inhibition [8] was “Active” and the inhibition [9] was “inactive”. The Activity [10] was “Active”, the Activity [11] was “Active” and the Activity [12] was “Active; Almost Complete Protection Observed”. For the same compound, the Activity [13] was “Active; Almost Complete Protection Observed”, the inhibition [14] was “Active” and the inhibition [15] was “Active”. The inhibition [16] was “Active”, the Activity [17] was “Non-toxic” and the inhibition [18] was “Active”. For the same compound, the Activity [19] was “Non-toxic”, the inhibition [20] was “Active; Significant Changes Observed” and the Activity [21] was “Active; Slightly More Profound Effect Observed At 10 Um”. For the same compound, the inhibition [22] was “Active”, the inhibition [23] was “Active; Most Efficiently Upregulated The Ho-1 Level At 40 Um” and the inhibition [24] was “Active; Stronger Activation Of Nrf2 Observed”. For the same compound, the inhibition [25] was “Active; Stronger Activation Of Nrf2 Observed”.

With `CC1(C)CC[C@]2(C(=O)O)CC[C@]3(C)[C@H](C(=O)C=C4[C@@]5(C)C=C(C#N)C(=O)C(C)(C)[C@@H]5CC[C@]43C)[C@@H]2C1` the inhibition [26] was “Active”.

For `CC1=C2C(CCS2(=O)=O)c2c(O)ccc(O)c2C1` (centres undefined), the inhibition [27] was “Active; Upregulated Nrf2 To A Lesser Degree”, the inhibition [28] was “Active” and the inhibition [29] was “Active”. For the same compound, the Activity [30] was “Toxic”, the inhibition [31] was “inactive” and the inhibition [32] was “inactive”.

In the case of `CC(C)C[C@@H](C=O)NC(=O)[C@H](CC(C)C)NC(=O)[C@H](CC(C)C)NC(=O)OCc1ccccc1` [MG-132] (Cbz-Leu-Leu-Leu-aldehyde), the “inhibition (INH)” value [33] is reported as “Active”.

In the case of `CC(C)(C)c1cc(O)ccc1O`, the inhibition [34] is reported as “Active”.
